Drawing on PubChem BioAssay AID266 (DTP/NCI, 2004), this text covers T/C for 19 compounds.

This test has as its system Nude mice, LX-1 lung xenograft intrarenal, tumor weight T/C. The test is described as follows: NCI In Vivo Anticancer Drug Screen. Data for tumor model Human Lung LX-1 Xenograft (intrarenal inoculation) in NU/NU BALB/C (nude) mice. The note with it: endpoint: mean tumor weight change, higher = larger tumour. The protocol: The antitumor activity of compounds was measured in mice bearing transplantable tumors. Survival or tumor size were measured and the results are expressed as the measurement made in the treated group (T) divided by the measurement made in the vehicle treated control group (C). The tumor model used in this assay is Human Lung LX-1 Xenograft (intrarenal inoculation) in NU/NU BALB/C (nude) mice
On the technique in general: A xenograft is tissue or cells of one species grown in another, often human tumour cells in immunodeficient mice.

The mark [1] stands for this setting: dose: 50.0 mg/kg/injection, schedule: Q01DX010 (sc), vehicle: saline with Tween-80.
The mark [2] stands for this setting: dose: 300.0 mg/kg/injection, schedule: Q04DX003 (sc), vehicle: saline with Tween-80.
[3] abbreviates: dose: 600.0 mg/kg/injection, schedule: Q04DX003 (sc), vehicle: saline with Tween-80.
[4] abbreviates: dose: 1200.0 mg/kg/injection, schedule: Q04DX003 (sc), vehicle: saline with Tween-80.

Records with an inconclusive call do not appear.

As to `C/C=C(\C)c1cc(=O)c2c(C)cc3c(c2o1)C(=O)c1c(O)c(C2CC(C)(N(C)C)C(OC(C)=O)C(C)O2)cc(C2CC(N(C)C)C(O)C(C)O2)c1C3=O` (centres undefined), the T/C was 68 % of control (dose: 0.63 mg/kg/injection, schedule: Q04DX003 (sc), vehicle: saline); 48 % of control (dose: 1.25 mg/kg/injection, schedule: Q04DX003 (sc), vehicle: saline); 45 % of control (dose: 2.5 mg/kg/injection, schedule: Q04DX003 (sc), vehicle: saline); 51 % of control (dose: 5.0 mg/kg/injection, schedule: Q04DX003 (sc), vehicle: saline).

With `COc1ccc(N=N/N=c2\sc3cc(OC)ccc3n2C)cc1`, the T/C was 117 % of control (dose: 30.0 mg/kg/injection, schedule: Q04DX003 (ip), vehicle: saline with Tween-80); 94 % of control (dose: 60.0 mg/kg/injection, schedule: Q04DX003 (ip), vehicle: saline with Tween-80); 99 % of control (dose: 75.0 mg/kg/injection, schedule: Q04DX003 (ip), vehicle: saline with Tween-80); 55 % of control (dose: 120.0 mg/kg/injection, schedule: Q04DX003 (ip), vehicle: saline with Tween-80); 80 % of control (dose: 150.0 mg/kg/injection, schedule: Q04DX003 (ip), vehicle: saline with Tween-80); 67 % of control (dose: 240.0 mg/kg/injection, schedule: Q04DX003 (ip), vehicle: saline with Tween-80). The T/C (dose: 300.0 mg/kg/injection, schedule: Q04DX003 (ip), vehicle: saline with Tween-80) was 50 % of control.

For `O=C1NC(=O)NC(C(=O)O)N1`, the T/C (dose: 100.0 mg/kg/injection, schedule: Q04DX003 (sc), vehicle: Klucel (hydroxypropylcellulose) (HPC)) is 87 % of control; the T/C (dose: 200.0 mg/kg/injection, schedule: Q04DX003 (sc), vehicle: Klucel (hydroxypropylcellulose) (HPC)) is 98 % of control; the T/C (dose: 400.0 mg/kg/injection, schedule: Q04DX003 (sc), vehicle: Klucel (hydroxypropylcellulose) (HPC)) is 106 % of control.

Turning to `CC1=C(/C=C/C(C)=C/C=C/C(C)=C/C(=O)O)C(C)(C)CCC1`, under setting [1], the T/C was 75 % of control.

On to `COC(=O)c1ccc(N=NN(C)COC(C)=O)cc1`, for which the T/C (dose: 155.52 mg/kg/injection, schedule: Q04DX003 (ip), vehicle: Klucel (hydroxypropylcellulose) (HPC)) is 78 % of control; the T/C (dose: 259.2 mg/kg/injection, schedule: Q04DX003 (ip), vehicle: Klucel (hydroxypropylcellulose) (HPC)) was 47 % of control; the T/C (dose: 432.0 mg/kg/injection, schedule: Q04DX003 (ip), vehicle: Klucel (hydroxypropylcellulose) (HPC)) was 60 % of control; the T/C (dose: 720.0 mg/kg/injection, schedule: Q04DX003 (ip), vehicle: Klucel (hydroxypropylcellulose) (HPC)) was 64 % of control.

For the compound `[Cl][Hg][Cl]`, the T/C is 92 % of control (dose: 2.5 mg/kg/injection, schedule: Q04DX003 (ip), vehicle: saline); 82 % of control (dose: 5.0 mg/kg/injection, schedule: Q04DX003 (ip), vehicle: saline); 58 % of control (dose: 10.0 mg/kg/injection, schedule: Q04DX003 (ip), vehicle: saline).

As for `Nc1nc(Br)nc2c1ncn2C1CC(O)C(CO)O1` (centres undefined), the T/C was 66 % of control (dose: 7.5 mg/kg/injection, schedule: Q03DX003 (ip), vehicle: saline); 77 % of control (dose: 15.0 mg/kg/injection, schedule: Q03DX003 (ip), vehicle: saline); 72 % of control (dose: 30.0 mg/kg/injection, schedule: Q03DX003 (ip), vehicle: saline); 59 % of control (dose: 60.0 mg/kg/injection, schedule: Q03DX003 (ip), vehicle: saline); 74 % of control (dose: 120.0 mg/kg/injection, schedule: Q03DX003 (ip), vehicle: saline).

On to `O=C(CCCN1CCC(C(O)c2ccc(F)cc2)CC1)c1ccc(F)cc1` (centres undefined), for which the T/C is, setting by setting: (dose: 12.5 mg/kg/injection, schedule: Q04DX003 (ip), vehicle: saline with Tween-80) 64 % of control; (dose: 25.0 mg/kg/injection, schedule: Q04DX003 (ip), vehicle: saline with Tween-80) 68 % of control; (dose: 50.0 mg/kg/injection, schedule: Q04DX003 (ip), vehicle: saline with Tween-80) 69 % of control.

Turning to `C[C@@H]1C[C@@H]([C@H](O)CC2CC(=O)NC(=O)C2)C(=O)[C@@H](C)C1`, the T/C is, setting by setting: (dose: 18.75 mg/kg/injection, schedule: Q04DX003 (sc), vehicle: saline) 94 % of control; (dose: 37.5 mg/kg/injection, schedule: Q04DX003 (sc), vehicle: saline) 114 % of control; (dose: 75.0 mg/kg/injection, schedule: Q04DX003 (sc), vehicle: saline) 118 % of control; (dose: 150.0 mg/kg/injection, schedule: Q04DX003 (sc), vehicle: saline) 110 % of control.

Consider `NC(=O)NO`, for which the T/C was 60 % of control (dose: 200.0 mg/kg/injection, schedule: Q01DX010 (sc), vehicle: saline) and 105 % of control (dose: 400.0 mg/kg/injection, schedule: Q01DX010 (sc), vehicle: saline).

Consider `C[n+]1c(-c2cccc3ccccc23)c2cc(N)ccc2c2ccccc21`, for which the T/C reads like this: (dose: 1.5 mg/kg/injection, schedule: Q04DX003 (sc), vehicle: saline) 164 % of control; (dose: 6.0 mg/kg/injection, schedule: Q04DX003 (sc), vehicle: saline) 113 % of control; (dose: 24.0 mg/kg/injection, schedule: Q04DX003 (sc), vehicle: saline) 112 % of control; (dose: 48.0 mg/kg/injection, schedule: Q04DX003 (sc), vehicle: saline) 78 % of control.

For `Nc1ccc(S(=O)(=O)Nc2cnc3c(Cl)cccc3n2)cc1`, the T/C reads like this: (dose: 150.0 mg/kg/injection, schedule: Q04DX003 (ip), vehicle: DMSO) 82 % of control; (dose: 300.0 mg/kg/injection, schedule: Q04DX003 (ip), vehicle: DMSO) 89 % of control; (dose: 600.0 mg/kg/injection, schedule: Q04DX003 (ip), vehicle: DMSO) 45 % of control.

As to `COC1=C(OC)C(=O)C(C/C=C(\C)CC/C=C(\C)CC/C=C(\C)CC/C=C(\C)CC/C=C(\C)CC/C=C(\C)CC/C=C(\C)CC/C=C(\C)CC/C=C(\C)CCC=C(C)C)=C(C)C1=O`, the T/C by setting is: under setting [1], 91 % of control; (dose: 100.0 mg/kg/injection, schedule: Q01DX010 (sc), vehicle: saline with Tween-80) 90 % of control; (dose: 200.0 mg/kg/injection, schedule: Q01DX010 (sc), vehicle: saline with Tween-80) 102 % of control; (dose: 400.0 mg/kg/injection, schedule: Q01DX010 (sc), vehicle: saline with Tween-80) 104 % of control.

Turning to `COCC(O)Cn1ccnc1[N+](=O)[O-]` (centres undefined), the T/C (dose: 2400.0 mg/kg/injection, schedule: Q04DX003 (sc), vehicle: suspension in saline) was 104 % of control.

`CC(=O)C(=O)O.CC(=O)C(=O)O.[NH-]C1CCCCC1[NH-].[Pt+2]` (centres undefined): the T/C reads like this: (dose: 9.37 mg/kg/injection, schedule: Q04DX003 (sc), vehicle: other) 67 % of control; (dose: 18.75 mg/kg/injection, schedule: Q04DX003 (sc), vehicle: other) 76 % of control; (dose: 37.5 mg/kg/injection, schedule: Q04DX003 (sc), vehicle: other) 80 % of control.

For `CC(=Nc1ccccc1)C1=C(O)C(Cc2ccccc2)NC1=O` (centres undefined), the T/C by setting is: under setting [2], 52 % of control; under setting [3], 32 % of control; under setting [4], 40 % of control; (dose: 2400.0 mg/kg/injection, schedule: Q04DX003 (sc), vehicle: saline with Tween-80) 30 % of control.

For the compound `C[C@]12CCC(=O)C(O)=C1CC[C@@H]1[C@@H]2CC[C@]2(C)C(=O)CC[C@@H]12`, the T/C was 61 % of control (dose: 150.0 mg/kg/injection, schedule: Q04DX003 (ip), vehicle: Klucel (hydroxypropylcellulose) (HPC)); 99 % of control (dose: 300.0 mg/kg/injection, schedule: Q04DX003 (ip), vehicle: Klucel (hydroxypropylcellulose) (HPC)); 89 % of control (dose: 600.0 mg/kg/injection, schedule: Q04DX003 (ip), vehicle: Klucel (hydroxypropylcellulose) (HPC)).

In the case of `CC1(C)CC2(C)OC2C2(C1)N=NC(=Nc1ccccc1)O2` (centres undefined), the T/C by setting is: under setting [2], 104 % of control; under setting [3], 61 % of control; under setting [4], 91 % of control.

In the case of `CC(=O)Oc1c[nH]c(=O)[nH]c1=O`, the T/C (dose: 200.0 mg/kg/injection, schedule: Q04DX003 (sc), vehicle: distilled water + Tween-80) is 98 % of control; the T/C (dose: 400.0 mg/kg/injection, schedule: Q04DX003 (sc), vehicle: distilled water + Tween-80) was 76 % of control; the T/C (dose: 800.0 mg/kg/injection, schedule: Q04DX003 (sc), vehicle: distilled water + Tween-80) was 104 % of control.
